Results on one compound are retold here after article PMC2759517 (PLoS ONE, 2009).

The test system of the test is PA-HA from several FluA strains. Format: binding, influenza A virus.

As for `CC[C@H](C)[C@H](NC(=O)[C@H](C)NC(=O)[C@H](CC(N)=O)NC(=O)[C@H](CCC(N)=O)NC(=O)[C@H](C)NC(=O)[C@@H]1CCCN1C(=O)[C@@H](NC(=O)[C@H](CCCCN)NC(=O)[C@H](CC(C)C)NC(=O)[C@H](Cc1ccccc1)NC(=O)[C@H](CC(C)C)NC(=O)[C@H](CC(C)C)NC(=O)[C@@H](NC(=O)[C@@H]1CCCN1C(=O)[C@H](CC(N)=O)NC(=O)[C@@H](NC(=O)[C@H](CC(=O)O)NC(=O)[C@@H](N)CCSC)C(C)C)[C@@H](C)O)C(C)C)C(=O)N[C@@H](CO)C(=O)N[C@H](C(=O)N[C@H](C(=O)N[C@@H](Cc1ccccc1)C(=O)N1CCC[C@H]1C(=O)N[C@@H](Cc1ccc(O)cc1)C(=O)N[C@H](C(N)=O)[C@@H](C)O)[C@@H](C)O)[C@@H](C)O` [PB1_1–25A], the “Binding of FluA PA-HA to immobilized peptide” value was “bound”.
